Active and inactive are the calls of the source. No rule for the calls is given here.
Target: Peptidyl-prolyl cis-trans isomerase FKBP1A (Homo sapiens) (UniProt P62942)
Assay: small-molecule binding to FKBP12 – biophysical, NMR detection (AID 608)
Details: purified FKBP12

Sequence of Peptidyl-prolyl cis-trans isomerase FKBP1A (Homo sapiens) (P62942 whole entry, looked up): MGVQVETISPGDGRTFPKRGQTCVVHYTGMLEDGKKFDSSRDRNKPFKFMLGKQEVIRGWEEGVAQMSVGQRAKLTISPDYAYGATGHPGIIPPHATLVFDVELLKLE

Row | Compound | Kd
1 | O=c1[nH]c2sc3c(c2c2nncn12)CCCC3 | > 4 mM (inactive)
2 | Cc1occc1C(=O)Nc1nccs1 | > 4 mM (inactive)
3 | COC(=O)c1ccc(/C=C2/NC(=S)NC2=O)cc1 | > 4 mM (inactive)
4 | CC(C)CCCC(C)[C@H]1CCC2C3CC[C@H]4CC(=O)CC[C@]4(C)C3CC[C@@]21C (some centres not stated) | > 4 mM (inactive)
5 | Cc1nc(-c2ccc(CO)s2)cs1 | > 4 mM (inactive)
6 | C[C@H](CCC(=O)O)[C@H]1CCC2C3C(CC[C@@]21C)[C@@]1(C)CC[C@@H](O)C[C@H]1C[C@@H]3O (some centres not stated) | > 4 mM (inactive)
7 | Cc1oc(-c2ccccc2)cc1C(=O)O | > 4 mM (inactive)
8 | CCc1ccccc1NC(=O)c1cnccn1 | > 4 mM (inactive)
9 | CC(CC(O)C1OC1(C)C)[C@@H]1CCC2(C)C3=CCC4C(C)(C)C(=O)CCC4(C)C3CC[C@@]12C (some centres not stated) | > 4 mM (inactive)
10 | O=C1NC(=Nc2ccccc2Cl)SC1(CO)CO | > 4 mM (inactive)
11 | NC(=O)Cn1cnc2c(cnn2-c2ccccc2)c1=O | > 4 mM (inactive)
12 | NC(=O)C1CCN(CN2C(=O)c3ccccc3C2=O)CC1 | > 4 mM (inactive)
13 | CC(=O)Nc1ccc(Nc2nnc(C)c(=O)[nH]2)cc1 | > 4 mM (inactive)
14 | CCCn1cnn2c(=O)cc(C)nc12 | > 4 mM (inactive)
15 | CC(=O)Nc1ccc(NC(=O)c2ccnn2C)cc1 | > 4 mM (inactive)
16 | Cc1nnc(N2CCN(Cc3ccccc3)CC2)[nH]c1=O | > 4 mM (inactive)
17 | Cn1cnc2c(=O)[nH]cc([N+](=O)[O-])c21 | > 4 mM (inactive)
18 | CC(=O)Nc1ccc2c(C)cc(=O)[nH]c2c1 | > 4 mM (inactive)
19 | O=C(Nc1ccc(N2CCCC2=O)cc1)c1cccc(F)c1 | > 4 mM (inactive)
20 | COc1cc2c(c(OC)c1OC)-c1ccc(OC)c(=O)cc1[C@@H](NC(C)=O)CC2 | > 4 mM (inactive)
21 | NC(=O)CS(=O)(=O)c1ccc(Cl)cc1 | > 4 mM (inactive)
22 | CCSc1nc(=S)n(CC)c(C)c1C(C)=O | > 4 mM (inactive)
23 | COc1c(C)c2c(c(O)c1C/C=C(\C)CCC(=O)O)C(=O)OC2 | > 4 mM (inactive)

Row | Compound | Kd
24 | OCc1nc2ccccc2s1 | > 4 mM (inactive)
25 | COc1ccc(C)cc1-n1c(-c2ccncc2)n[nH]c1=S | > 4 mM (inactive)
26 | COC(=O)c1cncn1C | > 4 mM (inactive)
27 | O=C1CSC(=Nc2cc(Cl)ccc2Cl)N1 | > 4 mM (inactive)
28 | Nc1oncc1-c1ccccn1 | > 4 mM (inactive)
29 | CC(=O)O[C@H]1CC[C@@]2(C)C(CC[C@]3(C)C2CC=C2C4CC(C)(C)CC[C@]4(C)CC[C@]23C)C1(C)C (some centres not stated) | > 4 mM (inactive)
30 | Cc1sc2nc(SCC(=O)N(C)C)[nH]c(=O)c2c1C | > 4 mM (inactive)
31 | CC(=O)Nc1ccc(S(=O)(=O)Nc2cc(C)on2)cc1 | > 4 mM (inactive)
32 | O=P(O)(Cc1ccccc1)c1ccccc1 | > 4 mM (inactive)
33 | Nc1cc(=O)[nH]c(SCC(=O)NCc2ccccc2)n1 | > 4 mM (inactive)
34 | Cc1ccc(C2NS(=O)(=O)N=C2N)cc1 (configuration not stated) | > 4 mM (inactive)
35 | CC(=O)Nc1nnc(-c2ccc(Cn3c(-c4cscn4)nc4ccccc43)cc2)s1 | inactive
36 | NC(=O)CC1Sc2ccccc2NC1=O (configuration not stated) | > 4 mM (inactive)
37 | COc1nc(C#N)c(N2CCOCC2)o1 | > 4 mM (inactive)
38 | C=C1CCC2[C@](C)(CO)[C@H](O)CC[C@@]2(C)[C@@H]1C/C=C1/C(=O)OC[C@H]1O (some centres not stated) | > 4 mM (inactive)
39 | Cc1cc(SCC(=O)Nc2nccs2)nc(=O)[nH]1 | > 4 mM (inactive)
40 | CC1(C)C2CC(=O)[C@]3(C)C(CC[C@@]4(C)[C@H](c5ccoc5)OC(=O)C5OC543)[C@@]2(C)[C@@H](O)C[C@H]1O (some centres not stated) | > 4 mM (inactive)
41 | Cc1cc2c(nn1)CCc1nonc1-2 | > 4 mM (inactive)
42 | COC(=O)CCC(C)C1CCC2C3CCC4C[C@H](O)CC[C@]4(C)C3C[C@H](O)[C@]12C (some centres not stated) | > 4 mM (inactive)
43 | O=C(Nc1nncs1)Oc1ccccc1 | > 4 mM (inactive)
44 | OC[C@@H]1CCCN2CCCC[C@H]12 | > 4 mM (inactive)
45 | Cc1nc(NC2=NCCC(=O)N2)nc2ccccc12 | > 4 mM (inactive)
46 | CC(C)c1ccc(OCC(=O)N2CCOCC2)cc1 | 0.394 mM

Row | Compound | Kd
47 | Cc1ccc(S(C)(=O)=O)s1 | > 4 mM (inactive)
48 | COc1cc(OC)c(-c2c(OC)cc(OC)cc2OC)c(OC)c1 | > 4 mM (inactive)
49 | Cc1cc(C(=O)N2CCCCCC2)cs1 | > 4 mM (inactive)
50 | CC(=O)OC[C@H]1O[C@@H](Oc2cc(OC(C)=O)c3c(=O)cc(-c4ccc(OC(C)=O)cc4)oc3c2)[C@H](OC(C)=O)[C@@H](OC(C)=O)[C@@H]1OC(C)=O | > 4 mM (inactive)
51 | NC1=NC(=O)C(Cc2cccc([N+](=O)[O-])c2)S1 (configuration not stated) | > 4 mM (inactive)
52 | CC[C@]12CCCN3CCc4c(n(c5ccccc45)[C@](O)(C(=O)OC)C1)[C@@H]32 | > 4 mM (inactive)
53 | CC(=O)Nc1ccc(NC(=O)/C=C\C(=O)O)cc1 | > 4 mM (inactive)
54 | CC[C@@]1(O)C[C@H](O[C@H]2C[C@H](N(C)C)[C@H](O)[C@H](C)O2)c2c(cc3c(c2O)C(=O)c2c(O)cccc2C3=O)[C@H]1C(=O)OC | > 4 mM (inactive)
55 | Cn1c(CO)nc2ccccc21 | > 4 mM (inactive)
56 | O=C1CSC(=O)N1CN1CCCC1 | > 4 mM (inactive)
57 | Cc1nc2ccc(NC(=O)N3CCOCC3)cc2s1 | > 4 mM (inactive)
58 | CCN1C(=O)c2cccc3c(S(N)(=O)=O)ccc1c23 | > 4 mM (inactive)
59 | COc1cc(-c2coc3cc(OC)c(OC)c(OC)c3c2=O)cc(OC)c1OC | > 4 mM (inactive)
60 | Cc1cc(C)cc(OC(=O)N2CCOCC2)c1 | > 4 mM (inactive)
61 | COc1ccccc1NC(=O)c1snnc1C | > 4 mM (inactive)
62 | O=S(=O)(Nc1ccc(Br)cc1)N1CCOCC1 | inactive
63 | CC1CCc2cc(F)ccc2N1C(=O)c1ccc(=O)[nH]n1 (configuration not stated) | > 4 mM (inactive)
64 | Cc1nnc(NCc2cccnc2)[nH]c1=O | > 4 mM (inactive)
65 | O=C(Nc1ccccc1)NC1CCS(=O)(=O)C1 (configuration not stated) | > 4 mM (inactive)
66 | NC(CC(=O)O)C(=O)Nc1ccc(Cl)cc1 (configuration not stated) | > 4 mM (inactive)
67 | Cc1cc(NC(=O)c2c(F)c(F)c(F)c(F)c2F)no1 | > 4 mM (inactive)
68 | CCOc1cc(S(=O)(=O)N2CCOCC2)ccc1F | > 4 mM (inactive)
69 | CN(C)CC(O)C1CCOC(C)(C)C1 (configuration not stated) | > 4 mM (inactive)

Row | Compound | Kd
70 | NC(=O)Cc1nc(-c2ccc(F)cc2)cs1 | > 4 mM (inactive)
71 | Cn1ccnc1C(O)c1ccccc1 (configuration not stated) | > 4 mM (inactive)
72 | Cc1noc(C)c1C(=O)NCc1cccs1 | > 4 mM (inactive)
73 | Brc1cccc(-c2nnco2)c1 | > 4 mM (inactive)
74 | CC1=CC(C)C(C(=O)O)C(C(=O)N2CCN(C)CC2)C1 (configuration not stated) | > 4 mM (inactive)
75 | Cc1occc1C(=O)N1CCC2(CC1)OCCO2 | > 4 mM (inactive)
76 | CN1CCN(C(=S)c2ccc(N(C)C)cc2)CC1 | > 4 mM (inactive)
77 | CC(=O)NN1C(=O)c2cccc3cccc(c23)C1=O | > 4 mM (inactive)
78 | CC(=O)Cc1nsc(NC(=O)c2ccc(C)cc2)n1 | > 4 mM (inactive)
79 | C[C@@H]1CC[C@H]2[C@@H](C)C(=O)O[C@@H]3OC4(C)CC[C@@H]1[C@]32OO4 | > 4 mM (inactive)
80 | NC1=C(c2ccccc2)C(=O)c2ccccc21 | > 4 mM (inactive)
81 | CC(=O)Oc1c(C)c(C)c2c(c1C)CCC(C)(CCCC(C)CCCC(C)CCCC(C)C)O2 (configuration not stated) | > 4 mM (inactive)
82 | O=C(O)c1ccccc1C(=O)NCC1CCCO1 (configuration not stated) | > 4 mM (inactive)
83 | O=C(O)c1cccnc1Oc1ccccc1 | > 4 mM (inactive)
84 | O=C(Cc1cccs1)Nc1nncs1 | > 4 mM (inactive)
85 | COc1cc([C@@H]2c3cc4c(cc3C(OC3O[C@@H]5COC(C)O[C@H]5[C@H](O)[C@H]3O)C3COC(=O)[C@@H]32)OCO4)cc(OC)c1O (some centres not stated) | > 4 mM (inactive)
86 | N#CCSc1nnc2ccc3ccccc3n12 | > 4 mM (inactive)
87 | CC(=O)Nc1ccc(NC2SC(=O)NC2=O)cc1 (configuration not stated) | > 4 mM (inactive)
88 | Cn1c(SCC(N)=O)nc2c1c(=O)[nH]c(=O)n2C | > 4 mM (inactive)
89 | COn1c(=O)c(C)[n+]([O-])c2ccccc21 | > 4 mM (inactive)
90 | COC(=O)C1Cc2ccccc2N1 (configuration not stated) | > 4 mM (inactive)
91 | Cn1cc(Cl)c(C(=O)NC2CCCCCC2)n1 | > 4 mM (inactive)
92 | CC(=O)Oc1ccc(-c2nc(-c3cccnc3)no2)cc1 | > 4 mM (inactive)

Row | Compound | Kd
93 | NCCc1ccc(S(N)(=O)=O)cc1 | > 4 mM (inactive)
94 | Cc1ccccc1NC(=O)C1CCC(=O)N1 (configuration not stated) | > 4 mM (inactive)
95 | Cc1onc(-c2c(F)cccc2Cl)c1C(N)=O | > 4 mM (inactive)
96 | COC(=O)c1ccc(C(=S)N2CCOCC2)cc1 | > 4 mM (inactive)
97 | Cc1nccc(-c2cccc(N)c2)n1 | > 4 mM (inactive)
98 | COc1ccc(-c2c(C)n([O-])c(C)c(C)[n+]2=O)cc1 | > 4 mM (inactive)
99 | Cc1cc(NC(=O)Cc2cccs2)no1 | > 4 mM (inactive)
100 | COc1ccccc1-c1c(C)nn2c(C)c(C(C)=O)cnc12 | > 4 mM (inactive)
101 | Nc1ncnc2c1ncn2CCOc1ccccc1 | > 4 mM (inactive)
102 | CN(C(=O)c1cc2cccnc2n(C)c1=O)c1ccccc1 | > 4 mM (inactive)
103 | O=C(O)CC1C(=O)NCCN1Cc1ccccc1 (configuration not stated) | > 4 mM (inactive)
104 | COc1c(O)cc2c(c1O)[C@H]1O[C@H](CO)[C@@H](O)[C@H](O)[C@@H]1OC2=O | > 4 mM (inactive)
105 | O=C(c1ccccc1)c1ccc(N2CCNCC2)cc1 | > 4 mM (inactive)
106 | O=C1C=CC(=O)c2c(O)cccc21 | > 4 mM (inactive)
107 | COc1ccc([C@@H]2CC(=O)c3c(O)cc(O)cc3O2)cc1O | > 4 mM (inactive)
108 | COc1ccc(-c2cc(=O)c3cc(OC)ccc3o2)cc1 | > 4 mM (inactive)
109 | O=C(Nc1ccc2c(c1)OCO2)c1cccs1 | > 4 mM (inactive)
110 | CNC(=O)C1CCCN(S(C)(=O)=O)C1 (configuration not stated) | > 4 mM (inactive)
111 | O=c1cc(-c2ccc(O)cc2)[nH]c(=S)[nH]1 | > 4 mM (inactive)
112 | COC(=O)C[C@@H]1C2(C)C(=O)[C@@H](CC3C2CC[C@]2(C)C3CC(=O)O[C@H]2c2ccoc2)[C@H](OC(C)=O)C1(C)C (some centres not stated) | > 4 mM (inactive)
